Melting point data for 79 compounds are collected here from patent US6518423B1, “Benzopiperidine derivatives” (Eisai Co., Ltd., priority 1996, dated 2003).

Counter-ions that a name gives are not always drawn.

The term melting point denotes the temperature of the solid-liquid transition. `COC(=O)c1ccc2c(c1)Nc1nccnc1S2` had a melting point of 265 to 268 °C.

The compound `Clc1nccn1Cc1ccc2c(c1)Nc1nccnc1S2` gave a melting point of 231 to 232 °C. To `Nc1nccn1Cc1ccc2c(c1)Nc1nccnc1S2` belongs 286 to 287 °C; to `CCOC(=O)c1ncn(Cc2ccc3c(c2)Nc2nccnc2S3)c1C`, 222 to 224 °C. The result for `O=C(O)/C=C/c1cn(Cc2ccc3c(c2)Nc2nccnc2S3)cn1` reads 275 to 276 °C. To `C/C(=C\c1c(C)ncn1Cc1ccc2c(c1)Nc1nccnc1S2)C(=O)O` belongs above 298 °C; to `O=C(O)CC1CC2(C1)C1CCCC2CN(Cc2ccc3c(c2)Nc2nccnc2S3)C1` (stereo not shown), 199 to 201 °C; to `Cc1ncn(Cc2ccc3c(c2)Nc2nccnc2S3)c1CO`, 188 to 192 °C. Take `c1cnc2c(n1)Nc1cc(Cn3cnnn3)ccc1S2`: the melting point lay in the range of 210 to 212 °C. For `c1cnc2c(n1)Nc1cc(Cn3ncnn3)ccc1S2`, the melting point lay within 206 to 208 °C. To `O=C(O)C(F)=C1C2CCCC1CN(Cc1ccc3c(c1)Nc1nccnc1S3)C2` belongs 223 to 225 °C (dec.); to `COC(c1cccnc1)c1ccc2c(c1)Nc1nccnc1S2` (stereo not shown), 156 to 188 °C; to `CCc1ccc(C(O)c2ccc3c(c2)Nc2nccnc2S3)cn1` (stereo not shown), 161 to 163 °C. The result for `CC(CC1C2CN(Cc3ccc4c(c3)Nc3nccnc3S4)CC1C(C)CC2C)C(=O)O` (stereo not shown) reads 110 to 115 °C; that for `CCOP(=O)(Cc1ccc2c(c1)Nc1nccnc1S2)OCC`, 164 to 165 °C; that for `CN(Cc1ccc(S(N)(=O)=O)cc1)Cc1ccc2c(c1)Nc1nccnc1S2`, 181 to 184 °C. The result for `CN(Cc1ccc2c(c1)Nc1nccnc1S2)CC1CCC(C(=O)O)CC1` (stereo not shown) reads 203 to 204 °C. In turn, `O=C(O)CCNC(=O)Cc1ccc2c(c1)Nc1nccnc1S2` had a melting point of 220 to 225 °C. To `CN(C)c1ncnc2c1ncn2Cc1ccc2c(c1)Nc1nccnc1S2` belongs 229 to 233 °C; to `N#Cc1ncnc2c1ncn2Cc1ccc2c(c1)Nc1nccnc1S2`, 272 to 274 °C. The result for `c1cnc2c(n1)Nc1cc(Cn3cnc4c(N5CCCCC5)ncnc43)ccc1S2` reads 228 to 229 °C; that for `OCCCc1ncnc2c1ncn2Cc1ccc2c(c1)Nc1nccnc1S2`, 174 to 177 °C. The result for `OCC#Cc1ncnc2c1ncn2Cc1ccc2c(c1)Nc1nccnc1S2` reads 152 to 154 °C (dec.); that for `CCOC(=O)CCCCSc1ncnc2ncn(Cc3ccc4c(c3)Nc3nccnc3S4)c12`, 175 to 178 °C.

For `CCCCC(Sc1ncnc2c1ncn2Cc1ccc2c(c1)Nc1nccnc1S2)C(=O)O` (stereo not shown), the melting point was 110 to 120 °C (dec.). To `N/C(Cc1ccc2c(c1)Nc1nccnc1S2)=N\NS(=O)(=O)c1ccccc1` belongs 226 to 227 °C; to `CS(=O)(=O)NC1CN=C(Cc2ccc3c(c2)Nc2nccnc2S3)NC1.Cl` (stereo not shown), 275 to 277 °C. With `CC(C)NC(Cc1ccc2c(c1)Nc1nccnc1S2)=NC#N`, the melting point is 266 to 268 °C. The result for `N#CN=C(Cc1ccc2c(c1)Nc1nccnc1S2)NCCO` reads 268 to 270 °C; that for `N#CN=C(Cc1ccc2c(c1)Nc1nccnc1S2)NCCS(=O)(=O)[O-].[Na+]`, 213 to 215 °C; that for `N#CN=CNCc1ccc2c(c1)Nc1nccnc1S2`, 224 to 226 °C. The result for `N#CN=CN(Cc1ccc2c(c1)Nc1nccnc1S2)Cc1ccccn1` reads 208 to 210 °C; that for `CN(C)/C=N/Cc1ccc2c(c1)Nc1nccnc1S2`, 218 to 219 °C. Take `CN/C(=C\[N+](=O)[O-])NCc1ccc2c(c1)Nc1nccnc1S2`: the melting point is > 265 °C (dec.). To `CS(=O)(=O)NCCC1CCN(Cc2ccc3c(c2)Nc2nccnc2S3)CC1` belongs 168 to 170 °C; to `NS(=O)(=O)NC1CCN(Cc2ccc3c(c2)Nc2nccnc2S3)CC1`, 196 to 199 °C. The result for `CS(=O)(=O)NCC1=CCCN(Cc2ccc3c(c2)Nc2nccnc2S3)C1` reads 110 to 112 °C. The result for `NC(=O)OC1CCN(Cc2ccc3c(c2)Nc2nccnc2S3)CC1` reads 139 to 142 °C; that for `OC(c1ccc2c(c1)Nc1nccnc1S2)c1ccccc1CN1CCCCC1` (stereo not shown), 219 to 221 °C. `CN1CCN(Cc2ccc3c(c2)Nc2nccnc2S3)CC1` displayed a melting point of 191 to 192 °C. As for `CC1(O)CCN(Cc2ccc3c(c2)Nc2nccnc2S3)CC1`, the melting point lay in the range of 176 to 180 °C. To `O=S(=O)(NC1CCN(Cc2ccc3c(c2)Nc2nccnc2S3)CC1)N1CCCCC1` belongs 56 to 57 °C; to `O=S(=O)(NC1CCN(Cc2ccc3c(c2)Nc2nccnc2S3)CC1)N1CCOCC1`, 189 to 190 °C. The result for `CC(C)(O)CC1CCN(Cc2ccc3c(c2)Nc2nccnc2S3)CC1` reads 187 to 188 °C; that for `N/C(=N\S(N)(=O)=O)C1CCN(Cc2ccc3c(c2)Nc2nccnc2S3)CC1`, 202 to 206 °C. To `CC(=O)NCC1CCN(Cc2ccc3c(c2)Nc2nccnc2S3)CC1` belongs 168 to 170 °C. `CNc1c(N2CCN(Cc3ccc4c(c3)Nc3nccnc3S4)CC2)c(=O)c1=O` returned a melting point above 300 °C. The result for `c1cnc2c(n1)Nc1cc(CN3CCCCCC3)ccc1S2` reads 161 to 163 °C. To `COc1cc2c(cc1CN1CCC(CCC(C)C(=O)O)CC1)Nc1nccnc1S2` (stereo not shown) belongs 155 to 160 °C. `O=C(O)CC(=O)NC1CCN(Cc2ccc3c(c2)Nc2nccnc2S3)CC1` registered a melting point of 149 to 151 °C.

Regarding `O=C(O)Cc1ccc(C2(O)CCN(Cc3ccc4c(c3)Nc3nccnc3S4)CC2)cc1`, the melting point is 192 °C (dec.). On to `O=C([O-])Cc1ccc(OC2CCN(Cc3ccc4c(c3)Nc3nccnc3S4)CC2)cc1.[Na+]`, for which the melting point was 261 to 265 °C (dec.).

`CC(C(=O)O)=C1CCN(Cc2ccc3c(c2)Nc2nccnc2S3)CC1` yielded a melting point of 125 to 127 °C. The result for `O=C(O)CS(=O)(=O)NC1CCN(Cc2ccc3c(c2)Nc2nccnc2S3)CC1` reads 200 to 210 °C; that for `CC(CCC1CCN(Cc2cnc3c(c2)Nc2nccnc2S3)CC1)C(=O)O` (stereo not shown), 115 to 118 °C; that for `CS(=O)(=O)N(CC(=O)O)C1CCN(Cc2ccc3c(c2)Nc2nccnc2S3)CC1`, 210 to 215 °C.

The compound `COC(=O)c1ccc(CN2c3ccccc3Nc3nccnc32)cc1` yielded a melting point of 232 to 234 °C. To `N#Cc1ccc2c(c1)Nc1nccnc1N2` belongs above 275 °C. The result for `COc1ccc2c(c1)N(C)c1nccnc1N2` reads 195 to 197 °C. Compound `CN1c2ccc(CO)cc2Nc2nccnc21` returned a melting point of 215 to 218 °C. Regarding `CN1c2ccc(CNC(=N)N)cc2Nc2nccnc21`, the melting point was above 275 °C.

As for `CN1c2ccc(C#CCO)cc2Nc2nccnc21`, the melting point is 241 to 243 °C. On to `NC(=O)c1ccc(NCc2ccc3c(c2)Nc2nccnc2S3)nc1`, for which the melting point lay in the range of 245 to 250 °C.

Consider `Cc1ccc(NCc2ccc3c(c2)Nc2nccnc2S3)cn1`, for which the melting point is 205 to 208 °C. The result for `Cc1cc(NCc2ccc3c(c2)Nc2nccnc2S3)c2ccccc2n1` reads 290 to 300 °C; that for `Clc1ccc(NCc2ccc3c(c2)Nc2nccnc2S3)nc1`, 200 to 203 °C. To `NCc1ncnc2c1ncn2Cc1ccc2c(c1)Nc1nccnc1S2` (as salt: oxalate) belongs 97 to 104 °C (dec.); to `COC(=O)c1ccc(-c2cn(Cc3ccc4c(c3)Nc3nccnc3S4)cn2)cc1` (as salt: trifluoroacetate), 161 to 162 °C; to `Cl.O[C@@H]1CN(Cc2ccc3c(c2)Nc2nccnc2S3)C[C@H]1O` (relative stereo), 241 to 242 °C (dec.). As to `O=C(O)CC1CC2CN(Cc3ccc4c(c3)Nc3nccnc3S4)CC2C1` (stereo not shown) [711], the melting point lay in the range of 112 to 117 °C. The result for `O=C(O)CC1CC2CN(Cc3ccc4c(c3)Nc3nccnc3S4)CC2C1` (stereo not shown) [714] reads 110 to 115 °C; that for `CC(C)(CCCN1CCN(Cc2ccc3c(c2)Nc2nccnc2S3)CC1)C(=O)O` [750], 240 to 242 °C. To `CC(C)(CCCN1CCN(Cc2ccc3c(c2)Nc2nccnc2S3)CC1)C(=O)O` [751] belongs above 275 °C; to `CCOC(=O)CC1C2CCCC1CN(Cc1ccc3c(c1)Nc1nccnc1S3)C2` (stereo not shown) [Example 17], 142 to 143 °C; to `CC1CC2CN(Cc3ccc4c(c3)Nc3nccnc3S4)CC(C1)C2CC(=O)O` (stereo not shown) [Example 78], 142 to 146 °C. To `O=C(O)CC1C2CN(Cc3ccc4c(c3)Nc3nccnc3S4)CC1C21CCC1` (stereo not shown) [Example 86] belongs 90 to 92 °C; to `CC1(C(=O)O)C2CCCC1CN(Cc1ccc3c(c1)Nc1nccnc1S3)C2` (stereo not shown) [Example 116], 183 to 185 °C.

In turn, `OC1C2CCCC1CN(Cc1ccc3c(c1)Nc1nccnc1S3)C2` (stereo not shown) [Example 126] returned a melting point of 215 to 219 °C.

`OC1C2CCCC1CN(Cc1ccc3c(c1)Nc1nccnc1S3)C2` (stereo not shown) [Example 127] showed a melting point of 189 to 192 °C.
